Assay results: patent publication US20240058455A1, “BIOORTHOGONAL LINKERS AND REACTIONS” (The General Hospital Corporation, priority 2020, published 2024)
Where a SMILES comes first, the peptide text is derived from it.

Assays:
[1] = Stability of C2TCO in full cell growth media, titration with DMT; format: in vitro ADME; settings: full cell growth media (10% FBS), 37° C., up to 48 h
Text: C2TCO can be incorporated into probes that bind to intracellular targets.

[2] = Endpoint cleavage of AF594-C2TCO-AF594 with tetrazines (HPLC, fluorescence detection); settings: 15 + excess tetrazine, buffered solution pH 7.4, endpoint 24 h
Description: As an initial assessment of cleavage efficiency, 15 was reacted with an excess of selected tetrazines in buffered solution at pH 7.4 and analyzed the reaction mixtures at an endpoint of 24 h by HPLC with fluorescence detection. […] One hypothesis is that this is not only due to slow tautomerization, but also limited elimination of the respective B1/B2 intermediate. The inability to achieve complete release with Pyr2Tz highlights the advantages of a cleavage directing group.
Release measurements with AF594-C2TCO-AF594: Analytical stock solutions and buffers. 10 mM stock solutions of the release probe AF594-C2TCO-AF594 was prepared and further diluted with citrate-phosphate buffer (as indicated below), so that the final concentration of DMSO in buffer was never higher than 2%. Tetrazine stock solutions were prepared in DMSO at concentrations ranging from 10-100 mM and diluted with citrate-phosphate buffer (as indicated below), so that the final concentration of DMSO in buffer was never higher than 2%. […]
Endpoint measurements with AF594-C2TCO-AF594. […] The released AF594-amine was detected using an RF-20Axs fluorescence detector and confirmed by a LCMS-2020 mass spectrometer (ESI) implemented in the Nexera X2® UHPLC system.

[3] = in vivo; cited from earlier work
[4] = Second order rate constants of tetrazines with PEGylated rTCO 6; settings: reaction with PEGylated rTCO 6
[5] = Release from rTCO-AlexaFluor 350 conjugate monitored by LCMS; settings: Tz 200 μM, 7 125 μM, pH 7, 25° C.; PyrMe within ~8 hours, PyrPA initial fast phase
Description: Similar to the previous study (Carlson et al.), an rTCO-AlexaFluor 350 conjugate was used (7, FIG. 5) to further investigate the release step. Reactions were carried out in buffered aqueous solution at pH 7 and 25° C., selecting concentrations of PyrMe or PyrPA (200 μM) and 7 (125 μM) such that the click reaction was done in less than 4 minutes, allowing temporal monitoring of post-click reactions by LCMS. With PyrMe, slow monophasic release was observed that reached a yield of approximately 50% within ˜8 hours. […] To verify these hypotheses, PyrMe was reacted with rTCO-glycine, the release reaction was allowed to proceed to completion, and the non-releasing isomer was then isolated. […] This key finding is in line with the observations of Sarris et al., who achieved approx. 80% release with PymK (3) and invoked the preferred formation of the releasing adduct with the ethylammonium moiety in head-to-head position. (due to pre-click interaction of NH3^+ with the carbamate functionality of the leaving group) to explain this increased conversion.

OC1/C=C/C(O)CCCC1 (stereo not drawn) [C2TCO, anti-cyclooct-2-ene-1,4-diol]
stability (intact C2TCO) [1]: > 97%

Cc1nnc(C)nn1 [DMT]
cleavage [2]: Nearly complete cleavage

N=C(N)NCCCC[C@@H]1NC(=O)CCSSC[C@@H](C(N)=O)NC(=O)[C@@H]2CCCN2C(=O)[C@H](Cc2c[nH]c3ccccc23)NC(=O)[C@H](CC(=O)O)NC(=O)CNC1=O [Eptifibatide] (HELM PEPTIDE1{[O=C(CCS[*:3])[*:2]].[N=C(N)NCCCC[C@H](N[*:1])C(=O)[*:2]].G.D.W.P.C.[am]}$PEPTIDE1,PEPTIDE1,1:R3-7:R3$$$V2.0)
half-life [3]: 3 to 4 h

c1ccc(-c2nnc(-c3ccccn3)nn2)nc1 [Pyr2Tz, 3,6-bis(2-pyridyl)tetrazine]
cleavage [2]: 23%

Cc1nnc(-c2ccccn2)nn1 [PyrMe]
rate enhancement vs. DMT [4]: up to 12 fold | release yield [5]: approximately 50%

O=C(O)CCc1nnc(-c2ccccn2)nn1 [PyrPA]
release yield [5]: very similar release yield

alteplase: widely-used tPA thrombolytic
clearance t1/2 [3]: about 5 min
